This note sets out measurements from paper PMC8151276, “An Integrated Approach toward NanoBRET Tracers for Analysis of GPCR Ligand Engagement” (Molecules, 2021).

Common to all, as to assay type: binding
For one assay, the target named is T1, ADRA2C (Homo sapiens, UniProt P18825).
T1 construct: purchased Promega (in-house HiBiT-GPCR construct library, NanoBRET)
T1 sequence (P18825 1-462): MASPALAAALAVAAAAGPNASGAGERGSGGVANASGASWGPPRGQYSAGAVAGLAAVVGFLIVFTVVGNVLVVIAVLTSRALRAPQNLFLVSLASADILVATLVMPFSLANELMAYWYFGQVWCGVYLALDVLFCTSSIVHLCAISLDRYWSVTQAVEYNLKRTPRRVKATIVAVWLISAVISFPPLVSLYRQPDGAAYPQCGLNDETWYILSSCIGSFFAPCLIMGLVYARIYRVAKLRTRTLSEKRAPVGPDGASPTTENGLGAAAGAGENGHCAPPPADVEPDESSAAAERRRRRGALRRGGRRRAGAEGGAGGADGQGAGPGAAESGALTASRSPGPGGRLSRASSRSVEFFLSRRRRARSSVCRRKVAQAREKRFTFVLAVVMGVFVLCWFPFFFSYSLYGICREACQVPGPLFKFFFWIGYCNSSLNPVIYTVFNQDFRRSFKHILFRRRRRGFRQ
Briefly: NanoBRET screen HiBiT-ADRA2C in HEK293. The method, then: (§1) Each tracer candidate was screened across the entire library of HiBiT-GPCR constructs using NanoBRET as the detection modality. As depicted in Figure 4A, the specificity of interactions was evaluated through decrease in BRET due to competitive displacement of a bound tracer by excess parental compound. Each tracer was analyzed for binding to each HiBiT-GPCR fusion in the absence and in the presence of competing parental compound. Briefly, HEK293 cells were transfected with HiBiT-GPCR constructs diluted into promoterless DNA to reduce expression and maximize translocation to the cell surface. Each tracer candidate was then screened at concentrations of 1 μM and 0.1 μM across cells expressing these fusions. Cells were treated for 1.5 h with tracer either alone or in the presence of 20 μM competing parental compound (i.e., control). BRET was measured upon addition of purified LgBiT and subsequent complementation with HiBiT genetically fused to a GPCR. The specificity of interactions was assessed through a decrease in BRET signal due to competitive displacement of the bound tracer. To further gauge the robustness of these interactions, the fold response over the control (i.e., BRETtracer/BRETcontrol) was calculated. We chose a 1.5-fold response, which translates to ≥7-fold signal over noise as the minimal threshold required to score an interaction as positive. […]. Below we highlight the screening results obtained for our exemplary fluorescent tracers based on Clozapine, Amitriptyline and AZD1283.
(§2) HiBiT-GPCR DNA constructs were diluted in 10 mM Tris pH 8 to a final concentration of 0.01 μg/μL, arrayed in 96-well plates and stored at −20 °C. For transfection, HEK293 cells were suspended in Opti-MEM (without phenol red) supplemented with 2% fetal bovine serum (Seradigm) and 100 units/mL penicillin–streptomycin (Gibco) at a final concentration of 220,000 cells/mL and dispensed into white 96-well plates at 90 μL/well. Subsequent transfections and screens were carried using an Agilent Bravo Automated Liquid Handling Platform. First, the 96-well HiBiT DNA arrays were diluted 25-fold in Opti-MEM (without serum or phenol red) to a final concentration of 0.0004 μg/μL and 20 μL of the diluted DNAs were transferred into new 96-well plates. Next, promoterless carrier DNA (1 μg/μL) was diluted 25-fold (0.04 μg/μL) and then dispensed into the diluted arrays at 20 μL/well. Following brief mixing, Viafect transfection reagent (Promega) diluted 16-fold into Opti-MEM was dispensed into the plates at 40 μL/well. After mixing by pipetting, plates were incubated for 10 min on the pipetting station deck. The DNA-transfection reagent complexes were then added to plates containing cells. To facilitate the screen, 10 μL of DNA-transfection reagent complexes were added in duplicates to the top 4 and bottom 4 rows, resulting in two identical 48-well arrays per plate. Plates with transfected cells were incubated for 18–20 h at 37 °C/5% CO2. A screen of each tracer across the entire library using two different concentrations requires duplicate plates of transfected cells. Depending on the number of tracers being screened, transfections can be scaled up using the same ratios. The next day, for each tracer, four 20× screening solutions in tracer dilution buffer (Promega) were prepared: two duplicates at final concentration of 20 μM and two duplicates at a final concentration of 2 μM. A competing unmodified compound was added to one of each duplicate at a final concentration of 400 μM. The four resulting solutions were diluted 4-fold in Opti-MEM without serum or phenol red to generate 5× solutions (5 µM and 0.5 µM tracer +/− 100 μM competing compound). To screen the library, a BioTek MultiFlo FX liquid dispenser was used to dispense 22.5 µL of tracer solution to the top 4 rows and 22.5 µL tracer + competing compound solution to the 4 bottom rows. Plates were briefly mixed on an orbital shaker and incubated for 1.5 h at room temperature. […]

The target of the next assay is T2, NPFFR2 (Homo sapiens, UniProt Q9Y5X5).
T2 construct: purchased Promega (in-house HiBiT-GPCR construct library, NanoBRET)
T2 sequence (Q9Y5X5 whole entry): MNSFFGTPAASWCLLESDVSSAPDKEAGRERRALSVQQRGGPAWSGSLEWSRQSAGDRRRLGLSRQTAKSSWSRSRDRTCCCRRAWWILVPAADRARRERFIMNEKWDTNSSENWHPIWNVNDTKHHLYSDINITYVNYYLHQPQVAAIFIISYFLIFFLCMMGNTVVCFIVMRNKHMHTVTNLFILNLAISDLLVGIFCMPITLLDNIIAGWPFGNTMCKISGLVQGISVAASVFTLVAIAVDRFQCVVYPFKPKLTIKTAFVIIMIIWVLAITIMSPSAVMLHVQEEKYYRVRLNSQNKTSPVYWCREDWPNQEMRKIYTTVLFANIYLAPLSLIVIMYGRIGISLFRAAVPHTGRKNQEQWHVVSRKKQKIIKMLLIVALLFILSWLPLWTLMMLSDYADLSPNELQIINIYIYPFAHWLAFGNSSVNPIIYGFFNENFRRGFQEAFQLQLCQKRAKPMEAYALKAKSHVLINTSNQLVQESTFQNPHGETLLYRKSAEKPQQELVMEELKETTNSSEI
Briefly: NanoBRET screen HiBiT-NPFFR2 in HEK293. Here is the method: as §1, §2
In general terms: In BRET a luciferase serves as donor, and the signal depends on an acceptor being close.

The target in the next assay is T3, BDKRB2 (Homo sapiens, UniProt P30411).
T3 construct: purchased Promega (in-house HiBiT-GPCR construct library, NanoBRET)
T3 sequence (P30411 1-391): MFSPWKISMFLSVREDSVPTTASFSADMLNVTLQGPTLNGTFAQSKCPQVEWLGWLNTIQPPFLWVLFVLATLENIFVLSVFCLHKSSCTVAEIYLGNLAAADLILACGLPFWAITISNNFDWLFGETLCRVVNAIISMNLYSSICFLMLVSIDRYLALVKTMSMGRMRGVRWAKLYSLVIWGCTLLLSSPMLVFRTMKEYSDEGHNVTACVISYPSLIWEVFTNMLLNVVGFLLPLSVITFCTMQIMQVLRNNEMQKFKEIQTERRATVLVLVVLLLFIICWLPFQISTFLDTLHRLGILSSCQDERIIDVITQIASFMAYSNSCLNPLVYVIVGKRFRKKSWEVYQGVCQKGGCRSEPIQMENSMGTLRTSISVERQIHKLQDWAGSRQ
Briefly: NanoBRET screen HiBiT-BDKRB2 in HEK293. Here is the method:
as §1, §2

For the next assay, the target named is T4, GRPR (Homo sapiens, UniProt P30550).
T4 construct: purchased Promega (in-house HiBiT-GPCR construct library, NanoBRET)
T4 sequence (P30550 whole entry): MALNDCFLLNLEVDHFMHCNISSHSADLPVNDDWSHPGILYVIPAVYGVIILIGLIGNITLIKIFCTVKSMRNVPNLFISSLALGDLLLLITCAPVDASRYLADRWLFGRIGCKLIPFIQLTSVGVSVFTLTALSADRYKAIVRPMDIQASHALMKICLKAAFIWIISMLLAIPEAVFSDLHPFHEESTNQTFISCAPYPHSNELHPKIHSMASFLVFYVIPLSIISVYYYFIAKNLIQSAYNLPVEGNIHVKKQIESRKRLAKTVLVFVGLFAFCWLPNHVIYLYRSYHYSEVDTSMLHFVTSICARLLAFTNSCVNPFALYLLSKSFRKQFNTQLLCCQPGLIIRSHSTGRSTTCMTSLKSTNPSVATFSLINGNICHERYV
Briefly: NanoBRET screen HiBiT-GRPR in HEK293. The method, then: as §1, §2

For the next assay, the target named is T5, MLNR (Homo sapiens, UniProt O43193).
T5 construct: purchased Promega (in-house HiBiT-GPCR construct library, NanoBRET)
T5 sequence (O43193 whole entry): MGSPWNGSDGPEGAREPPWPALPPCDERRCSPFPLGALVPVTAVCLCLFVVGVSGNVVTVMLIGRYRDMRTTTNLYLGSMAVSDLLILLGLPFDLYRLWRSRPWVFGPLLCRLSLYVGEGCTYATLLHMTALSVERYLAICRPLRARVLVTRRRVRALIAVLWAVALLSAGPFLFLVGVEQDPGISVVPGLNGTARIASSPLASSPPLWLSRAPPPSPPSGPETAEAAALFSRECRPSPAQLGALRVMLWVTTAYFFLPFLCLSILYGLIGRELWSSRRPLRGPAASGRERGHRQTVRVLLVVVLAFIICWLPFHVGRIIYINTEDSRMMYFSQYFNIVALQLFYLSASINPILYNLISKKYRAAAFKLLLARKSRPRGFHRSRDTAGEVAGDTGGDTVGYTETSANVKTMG
Briefly: NanoBRET screen HiBiT-MLNR in HEK293. Here is the method: as §1, §2

The target of another assay is T6, OXER1 (Homo sapiens, UniProt Q8TDS5).
T6 construct: purchased Promega (in-house HiBiT-GPCR construct library, NanoBRET)
T6 sequence (Q8TDS5 whole entry): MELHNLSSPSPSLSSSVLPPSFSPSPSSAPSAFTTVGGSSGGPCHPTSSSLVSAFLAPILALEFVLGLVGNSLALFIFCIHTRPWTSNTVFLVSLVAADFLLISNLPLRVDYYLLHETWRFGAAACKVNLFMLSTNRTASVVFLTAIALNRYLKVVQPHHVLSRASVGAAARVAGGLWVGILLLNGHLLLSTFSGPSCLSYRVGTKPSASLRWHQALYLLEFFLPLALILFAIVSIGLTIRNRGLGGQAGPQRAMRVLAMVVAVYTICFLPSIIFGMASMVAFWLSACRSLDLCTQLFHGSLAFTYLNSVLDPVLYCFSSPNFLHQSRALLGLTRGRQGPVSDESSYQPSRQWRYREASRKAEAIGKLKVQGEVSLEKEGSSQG
Briefly: NanoBRET screen HiBiT-OXER1 in HEK293. The method, then: as §1, §2

In the case of `COc1ccc2c(n1)c(CCNC(C)=O)cn2CCNC(=O)CCc1ccc2n1[B-](F)(F)[N+]1=C(c3ccc[nH]3)C=CC1=C2` [Azamelatonin-1-NB590], the “NanoBRET Fold Response” value at ADRA2C (0.1μM tracer) is recorded as 1.01; at ADRA2C (1μM tracer), 0.79; on NPFFR2 (0.1μM tracer) it was 1.16; at NPFFR2 (1μM tracer), 0.97; at BDKRB2 (0.1μM tracer), 1.00; on BDKRB2 (1μM tracer) it was 1.05. The “NanoBRET Fold Response” value at GRPR (0.1μM tracer) was 1.00; at GRPR (1μM tracer), 1.08; at MLNR (0.1μM tracer) it was 1.00; on MLNR (1μM tracer) it was 0.92; on OXER1 (0.1μM tracer) it was 1.39; at OXER1 (1μM tracer), 1.06.
With `CC(C)N(CC[C@H](c1ccccc1)c1cc(CCNC(=O)c2ccc(CNC(=O)CCc3ccc4n3[B-](F)(F)[N+]3=C(c5ccc[nH]5)C=CC3=C4)cc2)ccc1O)C(C)C` [Tolterodine-BZ-NB590], the “NanoBRET Fold Response” value at ADRA2C (ADRA2C, tracer 0.1μM) was 1.09; on ADRA2C (ADRA2C, tracer 1μM) it was 1.11; at NPFFR2 (NPFFR2, tracer 0.1μM), 1.00; at NPFFR2 (NPFFR2, tracer 1μM), 1.02; on BDKRB2 (BDKRB2, tracer 0.1μM) it was 1.04; on BDKRB2 (BDKRB2, tracer 1μM), 1.08. The “NanoBRET Fold Response” value on GRPR (GRPR, tracer 0.1μM) is 0.81; at GRPR (GRPR, tracer 1μM) it was 0.99; at MLNR (MLNR, tracer 0.1μM), 1.06; on MLNR (MLNR, tracer 1μM) it was 1.05; at OXER1 (OXER1, tracer 0.1μM) it was 1.00; on OXER1 (OXER1, tracer 1μM), 1.06.
In the case of `O=C(CCc1ccc2n1[B-](F)(F)[N+]1=C(c3ccc[nH]3)C=CC1=C2)NCCOCCOCCNC(=O)OCCOCCN1CCN(C2=Nc3ccccc3Sc3ccccc32)CC1` [Quetiapine-a-2-NB590], the “NanoBRET Fold Response” value came to 1.42 on ADRA2C (ADRA2C, tracer 1μM); 0.99 at NPFFR2 (NPFFR2, tracer 0.1μM); 0.97 on NPFFR2 (NPFFR2, tracer 1μM); 1.11 at BDKRB2 (BDKRB2, tracer 0.1μM); 0.81 at BDKRB2 (BDKRB2, tracer 1μM); 0.66 at GRPR (GRPR, tracer 0.1μM). Further, the “NanoBRET Fold Response” value stood at 0.84 on GRPR (GRPR, tracer 1μM); 1.02 on MLNR (MLNR, tracer 0.1μM); 0.86 at MLNR (MLNR, tracer 1μM); 0.99 on OXER1 (OXER1, tracer 0.1μM); 0.98 on OXER1 (OXER1, tracer 1μM).
Consider `Cc1cc2c(s1)Nc1ccccc1N=C2N1CCN(CCCNC(=O)CCOCCOCCOCCOCCNC(=O)CCc2ccc3n2[B-](F)(F)[N+]2=C(c4ccc[nH]4)C=CC2=C3)CC1` [Olanzapine-a-2-NB590], for which the “NanoBRET Fold Response” value at ADRA2C (ADRA2C, tracer 0.1μM) was 0.97; at ADRA2C (ADRA2C, tracer 1μM), 1.50; on NPFFR2 (NPFFR2, tracer 0.1μM), 0.98; at NPFFR2 (NPFFR2, tracer 1μM), 1.04; on BDKRB2 (BDKRB2, tracer 0.1μM), 0.97; on BDKRB2 (BDKRB2, tracer 1μM) it was 1.06. For the same compound, the “NanoBRET Fold Response” value on GRPR (GRPR, tracer 0.1μM) worked out at 0.95; at GRPR (GRPR, tracer 1μM), 0.93; on MLNR (MLNR, tracer 0.1μM), 1.27; on MLNR (MLNR, tracer 1μM), 1.15; on OXER1 (OXER1, tracer 0.1μM) it was 0.96; at OXER1 (OXER1, tracer 1μM), 1.04.
With `O=C(CCc1ccc2n1[B-](F)(F)[N+]1=C(c3ccc[nH]3)C=CC1=C2)NCc1ccc(C(=O)NCCOCCOCCNCC(O)COc2cccc3ccccc23)cc1` (stereo not drawn) [Propranolol-3-NB590], the “NanoBRET Fold Response” value at ADRA2C (ADRA2C, 0.1μM) is recorded as 0.95; on ADRA2C (ADRA2C, 1μM), 1.05; at NPFFR2 (NPFFR2, 0.1μM), 1.01; on NPFFR2 (NPFFR2, 1μM), 1.01; on BDKRB2 (BDKRB2, 0.1μM) it was 1.04; at BDKRB2 (BDKRB2, 1μM), 1.07. The “NanoBRET Fold Response” value is listed as 0.99 at GRPR (GRPR, 0.1μM); 1.03 on GRPR (GRPR, 1μM); 1.01 on MLNR (MLNR, 0.1μM); 1.02 at MLNR (MLNR, 1μM); 1.09 at OXER1 (OXER1, 0.1μM); 1.00 at OXER1 (OXER1, 1μM).
On to `N#CN/C(=N\CCNC(=O)c1ccc(N)cc1)NCCCOc1cccc(CN2CCCCC2)c1` [Aminopotentidine (unmodified)], for which the “NanoBRET Fold Response” value on ADRA2C (ADRA2C, other tracers/Aminopotentidine (unmodified), 0.1μM) is on record as 1.06; at ADRA2C (ADRA2C, other tracers/Aminopotentidine (unmodified), 1μM), 1.11.
For the compound `CN(CCC=C1c2ccccc2CCc2ccccc21)C(=O)CCOCCOCCOCCOCCNC(=O)CCc1ccc2n1[B-](F)(F)[N+]1=C(c3ccc[nH]3)C=CC1=C2` [Amitriptyline-e-2-NB590], at ADRA2C (tracer at 1μM), the “NanoBRET Fold Response” value stood at 1.00.
In the case of `CN(C)CCC=C1c2ccccc2CCc2ccc(C(=O)NCCNC(=O)CCOCCOCCOCCOCCNC(=O)CCc3ccc4n3[B-](F)(F)[N+]3=C(c5ccc[nH]5)C=CC3=C4)cc21` [Amitriptyline-a-2-NB590], the “NanoBRET Fold Response” value at ADRA2C (tracer at 1μM) is 1.37; on BDKRB2 (tracer at 0.1μM), 1.01; on BDKRB2 (tracer at 1μM), 1.04; at GRPR (tracer at 0.1μM), 1.12; on GRPR (tracer at 1μM) it was 0.98; on MLNR (tracer at 0.1μM) it was 1.05. The “NanoBRET Fold Response” value at MLNR (tracer at 1μM) is reported as 1.05.
